Assay results reported in patent US20180000085A1, “USE OF PICOLINAMIDE COMPOUNDS WITH FUNGICIDAL ACTIVITY” (DOW AGROSCIENCES LLC, priority 2014, published 2018).

What was measured:
Zymoseptoria tritici = assay: Leaf blotch of wheat (SEPTTR) disease control on wheat seedlings; assay type: in vivo; parameters: key to SEPTTR 1DP, HV activity at 100 ppm (% control rating) / SEPTTR 3DC, HV activity at 100 ppm (% control rating) / SEPTTR disease control, 1DP / SEPTTR disease control, 3DC / SEPTTR 1DP disease control rating, HV activity / SEPTTR 3DC disease control rating, HV activity / SEPTTR 3DC, LV activity at 125.1 g/H (% Control rating) / SEPTTR 1DP, LV activity at 125.1 g/H (% Control rating) / SEPTTR 1DP disease control rating, LV activity at 125.1 g/H / SEPTTR 3DC disease control rating, LV activity at 125.1 g/H / SEPTTR 3DC disease control rating, HV activity at 100 ppm / SEPTTR 1DP disease control rating, HV activity at 100 ppm / HV activity at 100 ppm SEPTTR 3DC (disease control rating) / HV activity at 100 ppm SEPTTR 1DP (disease control rating) / LV activity at 125.1 g/H SEPTTR 1DP (disease control rating) / LV activity at 125.1 g/H SEPTTR 3DC (disease control rating): A: > 80; B: ≤ 80; C: Not Tested; D: No Activity Observed in the Reported Assay; conditions: for SEPTTR 1DP disease control rating, LV activity at 125.1 g/H / SEPTTR 3DC disease control rating, LV activity at 125.1 g/H / SEPTTR 1DP, LV activity at 125.1 g/H (% Control rating) / SEPTTR 3DC, LV activity at 125.1 g/H (% Control rating): low volume application; for SEPTTR 1DP disease control rating, HV activity / SEPTTR 3DC disease control rating, HV activity: HV application at 100 ppm, wheat leaf blotch; for SEPTTR 1DP disease control rating, HV activity / SEPTTR 1DP, LV activity at 125.1 g/H (% Control rating): 1 Day Protectant; for SEPTTR 3DC disease control rating, HV activity / SEPTTR 3DC, LV activity at 125.1 g/H (% Control rating): 3 Day Curative
Puccinia triticina = assay: Wheat brown rust (PUCCRT) disease control on wheat seedlings; assay type: in vivo; parameters: key to PUCCRT 3DC, HV activity at 100 ppm (% control rating) / PUCCRT disease control, 3DC / PUCCRT 1DP disease control rating, HV activity / PUCCRT 3DC disease control rating, HV activity / PUCCRT 3DC, LV activity at 125.1 g/H (% Control rating) / PUCCRT 1DP, LV activity at 125.1 g/H (% Control rating) / PUCCRT 3DC disease control rating, LV activity at 125.1 g/H / PUCCRT 1DP disease control rating, LV activity at 125.1 g/H / PUCCRT 3DC disease control rating, HV activity at 100 ppm / PUCCRT 1DP disease control rating, HV activity at 100 ppm / HV activity at 100 ppm PUCCRT 3DC (disease control rating) / LV activity at 125.1 g/H PUCCRT 1DP (disease control rating) / LV activity at 125.1 g/H PUCCRT 3DC (disease control rating): A: > 80; B: ≤ 80; C: Not Tested; D: No Activity Observed in the Reported Assay; conditions: for PUCCRT 1DP disease control rating, LV activity at 125.1 g/H / PUCCRT 3DC disease control rating, LV activity at 125.1 g/H / PUCCRT 1DP, LV activity at 125.1 g/H (% Control rating) / PUCCRT 3DC, LV activity at 125.1 g/H (% Control rating): low volume application; for PUCCRT 1DP disease control rating, HV activity / PUCCRT 3DC disease control rating, HV activity: HV application at 100 ppm, wheat brown rust; for PUCCRT 1DP disease control rating, HV activity / PUCCRT 1DP, LV activity at 125.1 g/H (% Control rating): 1 Day Protectant; for PUCCRT 3DC disease control rating, HV activity / PUCCRT 3DC, LV activity at 125.1 g/H (% Control rating): 3 Day Curative
[1] = high volume application, 100 ppm, 1 day protectant
[2] = high volume application, 100 ppm, 3 day curative

SMILES | SEPTTR 1DP disease control rating, LV activity at 125.1 g/H (Zymoseptoria tritici; 1 day protectant) | SEPTTR 3DC disease control rating, LV activity at 125.1 g/H (Zymoseptoria tritici; 3 day curative) | PUCCRT 1DP disease control rating, LV activity at 125.1 g/H (Puccinia triticina; 1 day protectant) | PUCCRT 3DC disease control rating, LV activity at 125.1 g/H (Puccinia triticina; 3 day curative) | SEPTTR 1DP disease control rating, HV activity (Zymoseptoria tritici) | SEPTTR 3DC disease control rating, HV activity (Zymoseptoria tritici) | PUCCRT 1DP disease control rating, HV activity (Puccinia triticina) | PUCCRT 3DC disease control rating, HV activity (Puccinia triticina) | also measured
COc1ccnc(C(=O)NC(C)C(=O)OC(C)C(Oc2ccc(C)cc2Cl)C2CCCC2)c1OCOC(C)=O (stereo not shown) [Cmpd 913] | D | B (≤ 80) | A (> 80) | B (≤ 80) |  |  |  |  | 
COc1ccnc(C(=O)N[C@@H](C)C(=O)O[C@@H](C)[C@@H](CC(C)C)Oc2ccccc2)c1O [Cmpd 355] |  |  |  |  | A (> 80) | A (> 80) | A (> 80) | A (> 80) | 
C=CC[C@@H](Oc1cc(F)cc(Cl)c1)[C@H](C)OC(=O)[C@H](C)NC(=O)c1nccc(OC)c1O [Cmpd 1022] |  |  |  |  |  |  |  |  | SEPTTR 1DP disease control rating, HV activity at 100 ppm (Zymoseptoria tritici; [1]): D; SEPTTR 3DC disease control rating, HV activity at 100 ppm (Zymoseptoria tritici; [2]): B (≤ 80); PUCCRT 1DP disease control rating, HV activity at 100 ppm (Puccinia triticina; [1]): B (≤ 80); PUCCRT 3DC disease control rating, HV activity at 100 ppm (Puccinia triticina; [2]): A (> 80)
CCC(CC)[C@H](Oc1ccc(Cl)cc1)[C@H](C)OC(=O)[C@H](C)NC(=O)c1nccc(OC)c1O [Cmpd 420] |  |  |  |  | A (> 80) | B (≤ 80) | B (≤ 80) | B (≤ 80) | 
COc1ccnc(C(=O)NC(C)C(=O)OC(C)COc2ccccc2)c1OCOC(C)=O (stereo not shown) [Cmpd 525] |  |  |  |  |  |  |  |  | SEPTTR 1DP, LV activity at 125.1 g/H (% Control rating) (Zymoseptoria tritici): B (≤ 80); SEPTTR 3DC, LV activity at 125.1 g/H (% Control rating) (Zymoseptoria tritici): D; PUCCRT 1DP, LV activity at 125.1 g/H (% Control rating) (Puccinia triticina): D; PUCCRT 3DC, LV activity at 125.1 g/H (% Control rating) (Puccinia triticina): B (≤ 80)
CCC(CC)C(Oc1cc(F)ccc1F)C(C)OC(=O)C(CC(C)C)NC(=O)c1nccc(OC)c1OCOC(C)=O (stereo not shown) [Cmpd 682] | B (≤ 80) | B (≤ 80) | B (≤ 80) | B (≤ 80) |  |  |  |  | 
COc1ccnc(C(=O)NC(C)C(=O)OC(C)C(Oc2cccc3ccccc23)C(C)C)c1OC(C)=O (stereo not shown) [Cmpd 859] | B (≤ 80) | D | A (> 80) | B (≤ 80) |  |  |  |  | 
COc1ccnc(C(=O)NC(C)C(=O)OC(C)COC(=O)C(C)C)c1OC(C)=O (stereo not shown) [Cmpd 532] |  |  |  |  |  |  |  |  | SEPTTR 1DP, LV activity at 125.1 g/H (% Control rating) (Zymoseptoria tritici): B (≤ 80); SEPTTR 3DC, LV activity at 125.1 g/H (% Control rating) (Zymoseptoria tritici): A (> 80); PUCCRT 1DP, LV activity at 125.1 g/H (% Control rating) (Puccinia triticina): D; PUCCRT 3DC, LV activity at 125.1 g/H (% Control rating) (Puccinia triticina): D
COc1ccnc(C(=O)NC(C)C(=O)OC(C)C(OCC2CC2)c2cccc(-c3ccccc3)c2)c1O (stereo not shown) [Cmpd 442] |  |  |  |  | D | B (≤ 80) | B (≤ 80) | B (≤ 80) | 
CCC(CC)[C@@H](Oc1cccc(-c2ccccc2)c1)[C@H](C)OC(=O)[C@@H](NC(=O)c1nccc(OC)c1O)C(C)C [Cmpd 413] |  |  |  |  | B (≤ 80) | D | B (≤ 80) | D | 
